Measured values from patent US20200237742A1, “Serdexmethylphenidate Conjugates, Compositions And Methods Of Use Thereof” (priority 2018, published 2020).
Structures can show the parent of a compound that is named as a salt.

Test system: healthy, nondependent, recreational stimulant users with intranasal insufflation experience
Experiment: Intranasal study, treatment-emergent adverse events (Table 54)
Procedure: The study consisted of a Screening Period, an in-clinic Drug Discrimination Phase, a Treatment Phase, and a Follow-Up Visit.
All subjects were required to fast for at least 8 hours prior to each dose of study drug until approximately 4 hours after each dose. Abuse potential measures and pharmacokinetic samples were collected at different times after the administration of study drug. Subjects who successfully completed the Drug Discrimination Phase and who qualified for the Treatment Phase remained as inpatients to enter the Treatment Phase.

[1] = intranasal, d-MPH HCl 40 mg, SDX Cl 80 mg, N = 46 each

COC(=O)[C@H](c1ccccc1)[C@H]1CCCCN1 [d-methylphenidate hydrochloride, d-threo-methylphenidate hydrochloride]
typical stimulant-related adverse events (euphoric mood, hypervigilance, cardiac palpitations and tachycardia) (intranasal d-MPH HCl compared to intranasal SDX Cl): occurred more often | Abdominal distension, subjects with event [1]: 0 n (%) | Abdominal pain, number of occurrences [1]: 1 E | Abdominal pain, subjects with event [1]: 1 (2.2%) n (%) | Agitation, subjects with event [1]: 0 n (%) | Anxiety, number of occurrences [1]: 2 E | Anxiety, subjects with event [1]: 2 (4.3%) n (%) | Any TEAE, number of occurrences [1]: 148 E | Any TEAE, subjects with event [1]: 46 (100.0%) n (%) | Arthralgia, subjects with event [1]: 0 n (%) | Asthenia, number of occurrences [1]: 1 E | Asthenia, subjects with event [1]: 1 (2.2%) n (%) | Back pain, number of occurrences [1]: 1 E | Back pain, subjects with event [1]: 1 (2.2%) n (%) | Blood pressure diastolic increased, number of occurrences [1]: 1 E | Blood pressure diastolic increased, subjects with event [1]: 1 (2.2%) n (%) | Bruxism, number of occurrences [1]: 2 E | Bruxism, subjects with event [1]: 2 (4.3%) n (%) | Cardiac disorders, number of occurrences [1]: 29 E | Cardiac disorders, subjects with event [1]: 19 (41.3%) n (%) | Catheter site haematoma, subjects with event [1]: 0 n (%) | Catheter site swelling, subjects with event [1]: 0 n (%) | Change in sustained attention, number of occurrences [1]: 1 E | Change in sustained attention, subjects with event [1]: 1 (2.2%) n (%) | Chest discomfort, number of occurrences [1]: 1 E | Chest discomfort, subjects with event [1]: 1 (2.2%) n (%) | Chest pain, subjects with event [1]: 0 n (%) | Claustrophobia, subjects with event [1]: 0 n (%) | Cough, subjects with event [1]: 0 n (%) | Decreased appetite, number of occurrences [1]: 3 E | Decreased appetite, subjects with event [1]: 3 (6.5%) n (%) | Defaecation urgency, number of occurrences [1]: 1 E | Defaecation urgency, subjects with event [1]: 1 (2.2%) n (%) | Diarrhoea, number of occurrences [1]: 1 E | Diarrhoea, subjects with event [1]: 1 (2.2%) n (%) | Disturbance in attention, number of occurrences [1]: 1 E | Disturbance in attention, subjects with event [1]: 1 (2.2%) n (%) | Dizziness, subjects with event [1]: 0 n (%) | Dry mouth, number of occurrences [1]: 6 E | Dry mouth, subjects with event [1]: 6 (13.0%) n (%) | Dry throat, number of occurrences [1]: 3 E | Dry throat, subjects with event [1]: 3 (6.5%) n (%) | Dysgeusia, subjects with event [1]: 0 n (%) | Dysmenorrhoea (menstrual cramps), number of occurrences [1]: 1 E | Dysmenorrhoea (menstrual cramps), subjects with event [1]: 1 (2.2%) n (%) | Dyspepsia, subjects with event [1]: 0 n (%) | Ecchymosis (skin discoloration), subjects with event [1]: 0 n (%) | Energy increased, number of occurrences [1]: 2 E | Energy increased, subjects with event [1]: 2 (4.3%) n (%) | Epistaxis (nosebleed), subjects with event [1]: 0 n (%) | Euphoric mood, number of occurrences [1]: 29 E | Euphoric mood, subjects with event [1]: 29 (63.0%) n (%) | Eye disorders, number of occurrences [1]: 3 E | Eye disorders, subjects with event [1]: 3 (6.5%) n (%) | Eye irritation, number of occurrences [1]: 1 E | Eye irritation, subjects with event [1]: 1 (2.2%) n (%) | Eye pain, subjects with event [1]: 0 n (%) | Fatigue, number of occurrences [1]: 3 E | Fatigue, subjects with event [1]: 3 (6.5%) n (%) | Feeling hot, number of occurrences [1]: 3 E | Feeling hot, subjects with event [1]: 3 (6.5%) n (%) | Feeling of relaxation, subjects with event [1]: 0 n (%) | Flushing, number of occurrences [1]: 1 E | Flushing, subjects with event [1]: 1 (2.2%) n (%) | Gastrointestinal disorders, number of occurrences [1]: 10 E | Gastrointestinal disorders, subjects with event [1]: 9 (19.6%) n (%) | General disorders and administration site conditions, number of occurrences [1]: 13 E | General disorders and administration site conditions, subjects with event [1]: 12 (26.1%) n (%) | Haematoma, number of occurrences [1]: 1 E | Haematoma, subjects with event [1]: 1 (2.2%) n (%) | Head discomfort, subjects with event [1]: 0 n (%) | Headache, number of occurrences [1]: 7 E | Headache, subjects with event [1]: 7 (15.2%) n (%) | Hyperhidrosis, number of occurrences [1]: 3 E | Hyperhidrosis, subjects with event [1]: 3 (6.5%) n (%) | Hypervigilance, number of occurrences [1]: 16 E | Hypervigilance, subjects with event [1]: 16 (34.8%) n (%) | Hypopnoea (shallow breathing), number of occurrences [1]: 1 E | Hypopnoea (shallow breathing), subjects with event [1]: 1 (2.2%) n (%) | Infections and infestations, subjects with event [1]: 0 n (%) | Investigations, number of occurrences [1]: 1 E | Investigations, subjects with event [1]: 1 (2.2%) n (%) | Irritability, subjects with event [1]: 0 n (%) | Lacrimation increased, subjects with event [1]: 0 n (%) | Metabolism and nutrition disorders, number of occurrences [1]: 3 E | Metabolism and nutrition disorders, subjects with event [1]: 3 (6.5%) n (%) | Muscle tightness, number of occurrences [1]: 2 E | Muscle tightness, subjects with event [1]: 2 (4.3%) n (%) | Muscle twitching, number of occurrences [1]: 1 E | Muscle twitching, subjects with event [1]: 1 (2.2%) n (%) | Musculoskeletal and connective tissue disorders, number of occurrences [1]: 5 E | Musculoskeletal and connective tissue disorders, subjects with event [1]: 4 (8.7%) n (%) | Nasal congestion, number of occurrences [1]: 1 E | Nasal congestion, subjects with event [1]: 1 (2.2%) n (%) | Nasal discomfort, number of occurrences [1]: 3 E | Nasal discomfort, subjects with event [1]: 3 (6.5%) n (%) | Nasal dryness, subjects with event [1]: 0 n (%) | Nausea, number of occurrences [1]: 1 E | Nausea, subjects with event [1]: 1 (2.2%) n (%) | Neck pain, number of occurrences [1]: 1 E | Neck pain, subjects with event [1]: 1 (2.2%) n (%) | Nervous system disorders, number of occurrences [1]: 10 E | Nervous system disorders, subjects with event [1]: 9 (19.6%) n (%) | Obsessive-compulsive disorder, number of occurrences [1]: 1 E | Obsessive-compulsive disorder, subjects with event [1]: 1 (2.2%) n (%) | Palpitations, number of occurrences [1]: 11 E | Palpitations, subjects with event [1]: 11 (23.9%) n (%) | Peripheral swelling, number of occurrences [1]: 1 E | Peripheral swelling, subjects with event [1]: 1 (2.2%) n (%) | Pharyngeal hypoaesthesia (numbness of throat), number of occurrences [1]: 1 E | Pharyngeal hypoaesthesia (numbness of throat), subjects with event [1]: 1 (2.2%) n (%) | Pharyngitis, subjects with event [1]: 0 n (%) | Phlebitis superficial, subjects with event [1]: 0 n (%) | Phonophobia (fear of loud noises), number of occurrences [1]: 1 E | Phonophobia (fear of loud noises), subjects with event [1]: 1 (2.2%) n (%) | Photophobia, number of occurrences [1]: 1 E | Photophobia, subjects with event [1]: 1 (2.2%) n (%) | Psychiatric disorders, number of occurrences [1]: 54 E | Psychiatric disorders, subjects with event [1]: 41 (89.1%) n (%) | Pyrexia, subjects with event [1]: 0 n (%) | Reproductive system and breast disorders, number of occurrences [1]: 2 E | Reproductive system and breast disorders, subjects with event [1]: 2 (4.3%) n (%) | Respiratory, thoracic and mediastinal disorders, number of occurrences [1]: 12 E | Respiratory, thoracic and mediastinal disorders, subjects with event [1]: 10 (21.7%) n (%) | Restlessness, number of occurrences [1]: 2 E | Restlessness, subjects with event [1]: 2 (4.3%) n (%) | Rhinorrhoea (runny nose), subjects with event [1]: 0 n (%) | Sinus tachycardia, number of occurrences [1]: 7 E | Sinus tachycardia, subjects with event [1]: 7 (15.2%) n (%) | Skin and subcutaneous tissue disorders, number of occurrences [1]: 4 E | Skin and subcutaneous tissue disorders, subjects with event [1]: 4 (8.7%) n (%) | Skin erosion, number of occurrences [1]: 1 E | Skin erosion, subjects with event [1]: 1 (2.2%) n (%) | Sneezing, subjects with event [1]: 0 n (%) | Somnolence, number of occurrences [1]: 2 E | Somnolence, subjects with event [1]: 2 (4.3%) n (%) | Tachycardia, number of occurrences [1]: 9 E | Tachycardia, subjects with event [1]: 8 (17.4%) n (%) | Testis discomfort, number of occurrences [1]: 1 E | Testis discomfort, subjects with event [1]: 1 (2.2%) n (%) | Throat irritation, number of occurrences [1]: 3 E | Throat irritation, subjects with event [1]: 3 (6.5%) n (%) | Upper-airway cough syndrome, subjects with event [1]: 0 n (%) | Vascular disorders, number of occurrences [1]: 2 E | Vascular disorders, subjects with event [1]: 2 (4.3%) n (%) | Ventricular extrasystoles, number of occurrences [1]: 2 E | Ventricular extrasystoles, subjects with event [1]: 2 (4.3%) n (%) | Vessel puncture site bruise, number of occurrences [1]: 1 E | Vessel puncture site bruise, subjects with event [1]: 1 (2.2%) n (%) | Vessel puncture site pain, number of occurrences [1]: 1 E | Vessel puncture site pain, subjects with event [1]: 1 (2.2%) n (%) | Visual impairment, number of occurrences [1]: 1 E | Visual impairment, subjects with event [1]: 1 (2.2%) n (%) | Vomiting, subjects with event [1]: 0 n (%)
